Results taken from patent US7803554B2, “Detection of binding factors with fluorescence polarization” (priority 2000, dated 2010).

Tests used:
[1] = test system: mouse monoclonal antibody 8E11; experiment: CE/LIF binding stoichiometry of TMR-BPDE oligonucleotides with antibody; conditions: 24 nM oligonucleotide
Experimental: The separation was carried out at room temperature with a separation voltage of 15 kV. The running buffer were either 1× tris-glycine (25 mM Tris, 192 mM glycine, pH 8.3) or 0.5× tris-glycine (12.5 mM tris and 96 mM glycine, pH 8.3). The capillary was washed approximately every 3 injections with 0.02 M NaOH electrophoretically at 15 kV for 7 min followed by electrophoresis using water and the running buffer for 7 min each. All capillary electrophoresis data were analyzed using Igor Pro software (version 3.1, WaveMetrics Inc., Lake Oswego, Oreg.).
Complex formation of TMR-labeled BPDE-DNA adducts and antibody: TMR-BPDE-16-mer and TMR-BPDE-90-mer samples were diluted to appropriate concentrations in running buffer (tris-glycine, pH 8.3). The double stranded BPDE-90-mer was denatured by heating at 95° C. for 5 min in a heating block. It was then placed on ice to prevent reannealing. After cooling, the samples were briefly centrifuged in a microcentrifuge (Z233M, Hermle) to collect condensation from the side of the tube, then gently mixed to ensure a homogenous solution. TMR-BPDE-16-mer was synthesized as a single-stranded oligonucleotide. […] After addition of antibody to the BPDE-oligonucleotide solutions, the samples were gently vortexed to ensure complete mixing and incubated at the room temperature for 5-10 min, then analyzed by CE/LIF. […]

[2] = molecular target: SSB (Escherichia coli, UniProt P0AGE0); conditions: fluorescence quenching methods; Molineux 1975, Krauss 1981; cited from earlier work
Sequence of SSB (P0AGE0 2-178 limits assumed): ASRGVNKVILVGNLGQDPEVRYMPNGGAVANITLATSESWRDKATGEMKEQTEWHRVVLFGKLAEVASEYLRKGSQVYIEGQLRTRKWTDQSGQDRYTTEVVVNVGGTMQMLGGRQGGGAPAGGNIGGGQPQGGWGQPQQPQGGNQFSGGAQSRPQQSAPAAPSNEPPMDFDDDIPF

[3] = test system: mouse monoclonal antibody 8E11; experiment: CE/LIF competitive binding of unlabeled BPDE-16-mer and TMR-BPDE-16-mer to antibody; conditions: 9.6 nM 16mer*, 33 nM antibody
Experimental: Simultaneous binding of two BPDE-DNA adducts to the antibody: Both TMR-labeled and unlabeled BPDE-adducts were allowed to bind with the antibody. The freshly diluted BPDE-16-mer (16mer) and TMR-BPDE-16-mer (16mer*) solutions were mixed together before addition of the antibody. Concentrations of the TMR-BPDE-16-mer and the antibody were kept constant at 9.6 nM and 33.3 nM, respectively, and the unlabeled BPDE-16-mer was varied from 2.5 nM to […]. The sample mixtures were incubated for 5 min at room temperature, then analyzed by CE/LIF. Similarly, the antibody was added to mixtures of the TMR-BPDE-16mer and BPDE-90mer to study the competitive binding and ligand exchange.
The relative changes of the primary and secondary complexes with varying concentrations of unlabeled 16mer when it is incubated with 9.6 nM TMR-labeled 16mer* and 33 nM (5 μg/mL) antibody were measured. When the concentration of the unlabeled 16mer is below 10 nM, the primary complex [Ab(16mer*)] dominates and its amount remains almost constant with increasing concentration of the unlabeled 16 mer up to 10 nM. The total ligand concentration (16mer* and 16mer) is lower compared with that of the antibody, and there are excess antibody binding sites available. Thus, no significant competition between the two ligands takes place. […]

16mer*: 5′-TMR-labeled 16-mer 5′-CCCATTATGCATAACC-3′ with a single BPDE adduct (single BPDE adduct, position not given here)
share of total oligonucleotide present as secondary complex (1:2) ([1]; antibody 1 μg/mL (maximum)): 50% | share of total oligonucleotide present as primary complex (1:1) with the antibody ([1]; antibody 8-16 μg/mL (50-100 nM)): 80-85%

d(pT)8
affinity of SSB [2]: about 2×10^6 M^−1

d(pT)16
affinity of SSB [2]: 1.4e+06 M⁻¹

unlabeled 16mer: unlabeled 16-mer 5′-CCCATTATGCATAACC-3′ with a BPDE adduct (chemistry not fully specified)
competitor concentration at which secondary complexes reach a maximum [3]: 100 nM | competitor concentration resulting in disappearance of the primary Ab(16mer*) complex [3]: above 250 nM
